Assay results published in patent US20240424109A1, “GLUCOSE-[…] CONJUGATES COMPRISING A TETRA-VALENT SUGAR CLUSTER FOR TREATMENT OF DIABETES” (Merck Sharp & Dohme LLC, priority 2021, published 2024).

Legend:
[1] = target: T1, Human macrophage mannose receptor 1 (MRC1) (Homo sapiens, UniProt P22897); assay: Human macrophage mannose receptor 1 (MRC1) competition binding assay; details: competition against Eu-labeled mannosylated-BSA
T1 sequence (P22897 19-1456): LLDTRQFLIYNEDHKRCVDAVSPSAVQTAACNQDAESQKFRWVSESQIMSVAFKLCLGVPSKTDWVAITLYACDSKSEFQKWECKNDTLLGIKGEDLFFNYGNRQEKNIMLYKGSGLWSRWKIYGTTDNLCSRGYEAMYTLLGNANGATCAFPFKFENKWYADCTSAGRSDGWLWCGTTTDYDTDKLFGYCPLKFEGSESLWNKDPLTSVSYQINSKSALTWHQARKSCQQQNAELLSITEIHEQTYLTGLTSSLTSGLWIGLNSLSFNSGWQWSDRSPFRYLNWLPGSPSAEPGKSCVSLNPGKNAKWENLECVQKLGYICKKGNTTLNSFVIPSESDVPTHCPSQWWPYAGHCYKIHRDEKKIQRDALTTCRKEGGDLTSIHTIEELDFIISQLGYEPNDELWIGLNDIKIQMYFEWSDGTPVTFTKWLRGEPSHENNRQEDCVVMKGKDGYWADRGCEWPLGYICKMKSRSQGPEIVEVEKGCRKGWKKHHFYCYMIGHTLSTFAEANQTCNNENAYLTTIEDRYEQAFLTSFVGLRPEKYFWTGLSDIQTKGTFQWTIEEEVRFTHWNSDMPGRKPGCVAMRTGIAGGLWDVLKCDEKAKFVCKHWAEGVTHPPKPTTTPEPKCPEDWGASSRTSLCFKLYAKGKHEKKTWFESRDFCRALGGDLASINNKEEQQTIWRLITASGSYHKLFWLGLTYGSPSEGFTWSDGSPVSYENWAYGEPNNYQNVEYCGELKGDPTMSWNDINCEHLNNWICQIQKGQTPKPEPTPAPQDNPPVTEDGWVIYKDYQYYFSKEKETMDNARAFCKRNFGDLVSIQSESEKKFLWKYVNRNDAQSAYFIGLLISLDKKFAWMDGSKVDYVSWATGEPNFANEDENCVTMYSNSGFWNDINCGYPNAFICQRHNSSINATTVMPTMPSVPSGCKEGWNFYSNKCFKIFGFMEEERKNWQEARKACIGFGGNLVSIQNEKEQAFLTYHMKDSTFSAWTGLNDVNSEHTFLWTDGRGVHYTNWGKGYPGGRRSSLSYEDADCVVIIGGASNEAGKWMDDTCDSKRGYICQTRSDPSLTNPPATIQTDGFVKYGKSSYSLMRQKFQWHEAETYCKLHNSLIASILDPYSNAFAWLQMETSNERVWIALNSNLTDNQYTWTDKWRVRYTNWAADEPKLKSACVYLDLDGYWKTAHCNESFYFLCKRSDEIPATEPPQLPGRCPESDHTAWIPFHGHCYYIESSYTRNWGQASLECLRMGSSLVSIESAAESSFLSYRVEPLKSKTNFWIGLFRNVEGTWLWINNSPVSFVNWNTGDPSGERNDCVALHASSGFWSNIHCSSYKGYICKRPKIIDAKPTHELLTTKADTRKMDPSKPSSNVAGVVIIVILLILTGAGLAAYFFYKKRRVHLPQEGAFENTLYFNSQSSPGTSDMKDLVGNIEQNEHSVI
Procedure: The competition binding assay for MRC1 utilized a ligand, mannosylated-BSA labeled with the DELFIA Eu-N1-ITC reagent (labeling kit for europium labeling of proteins and polypetides for use in dissociation-enhanced time-resolved fluorometric assay), as reported in the literature. Assay was performed either in a 96-well plate with 100 μL well volume (Method E) or in a 384-well plate with 25 μL well volume (Method F). […] The antibody was incubated in the plate for 1 h at rt with shaking. The plate was washed with wash buffer 3-5 times followed by addition of MRC1 (2 ng/μl final concentration) in PBS containing 1% stabilizer BSA. The plate was incubated at rt with gentle shaking for 1 h. The plate was washed three times with wash buffer. […]
(§1) The in vitro biological activities towards insulin receptor (IR) were measured by either ligand competition assays or functional phosphorylation assays, as described above, labeled as following: Method A: IR phosphorylation assay based on 96-well; Method B: IR phosphorylation assay based on 384-well with automated liquid dispense; Method C: cell-based IR binding assay; Method D: SPA IR binding assay method E; Method E: MRC1 assay was performed in a 96-well plate; Method F: MRC1 assay was performed in a 384-well plate.

[2] = target: T2, human insulin receptor type B (IR(B)) (Homo sapiens, UniProt P06213); assay: Insulin receptor competition binding assay (125[I]-insulin; whole cell or SPA)
T2 construct: expressed in transfected cells; host or cells: CHO cells (G418 selection)
Procedure: Method D: IR binding assay was run in a scintillation proximity assay (SPA) in 384-well format using cell membranes prepared from CHO cells overexpressing human IR(B) grown in F12 media containing 10% FBS and antibiotics (G418, Penicillin/[…]).
as §1

T2 sequence (P06213 28-758 limits assumed): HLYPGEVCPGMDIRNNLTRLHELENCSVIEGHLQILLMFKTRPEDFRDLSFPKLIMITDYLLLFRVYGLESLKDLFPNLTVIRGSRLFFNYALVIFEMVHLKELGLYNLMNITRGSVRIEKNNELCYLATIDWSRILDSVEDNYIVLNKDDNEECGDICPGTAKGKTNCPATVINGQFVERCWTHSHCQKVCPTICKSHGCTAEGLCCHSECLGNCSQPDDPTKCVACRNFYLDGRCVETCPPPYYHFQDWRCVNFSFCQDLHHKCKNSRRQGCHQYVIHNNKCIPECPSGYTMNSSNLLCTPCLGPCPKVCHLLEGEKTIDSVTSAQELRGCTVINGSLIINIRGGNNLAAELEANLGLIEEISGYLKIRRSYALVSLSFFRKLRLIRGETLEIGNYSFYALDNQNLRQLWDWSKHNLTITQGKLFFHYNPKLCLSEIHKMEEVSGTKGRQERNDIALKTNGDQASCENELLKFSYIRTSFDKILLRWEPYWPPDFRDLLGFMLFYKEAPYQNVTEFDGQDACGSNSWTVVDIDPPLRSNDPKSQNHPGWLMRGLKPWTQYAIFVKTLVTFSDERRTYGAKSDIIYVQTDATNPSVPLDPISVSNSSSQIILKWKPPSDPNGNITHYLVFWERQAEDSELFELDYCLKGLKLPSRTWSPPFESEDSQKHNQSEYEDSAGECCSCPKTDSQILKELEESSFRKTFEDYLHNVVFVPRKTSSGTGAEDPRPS
T2 sequence (P06213 763-1382 limits assumed): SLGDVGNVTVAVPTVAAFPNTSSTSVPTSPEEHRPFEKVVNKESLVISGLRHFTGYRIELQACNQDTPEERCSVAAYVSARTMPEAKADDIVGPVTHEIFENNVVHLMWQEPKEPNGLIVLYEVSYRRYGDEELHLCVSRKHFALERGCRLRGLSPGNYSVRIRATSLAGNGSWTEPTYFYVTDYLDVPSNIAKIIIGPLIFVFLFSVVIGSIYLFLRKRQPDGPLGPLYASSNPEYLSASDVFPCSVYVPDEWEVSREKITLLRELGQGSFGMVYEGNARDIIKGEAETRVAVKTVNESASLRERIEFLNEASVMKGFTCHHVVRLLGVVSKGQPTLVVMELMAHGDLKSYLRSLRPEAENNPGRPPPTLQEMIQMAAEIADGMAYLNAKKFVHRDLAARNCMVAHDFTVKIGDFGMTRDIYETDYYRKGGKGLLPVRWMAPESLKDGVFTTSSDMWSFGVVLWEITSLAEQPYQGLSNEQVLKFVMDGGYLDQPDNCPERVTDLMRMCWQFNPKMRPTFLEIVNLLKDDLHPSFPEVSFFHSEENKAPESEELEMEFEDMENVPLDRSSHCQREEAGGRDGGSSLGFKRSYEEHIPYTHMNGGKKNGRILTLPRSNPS

With `CC[C@H](C)[C@H](NC(=O)CN)C(=O)N[C@H](C(=O)N[C@@H](CCC(=O)O)C(=O)N[C@@H](CCC(N)=O)C(=O)N[C@H]1CSSC[C@@H]2NC(=O)[C@H]([C@@H](C)CC)NC(=O)[C@H](CO)NC(=O)[C@H]([C@@H](C)O)NC(=O)[C@H](CSSC[C@H](NC(=O)[C@H](CC(C)C)NC(=O)[C@H](Cc3c[nH]cn3)NC(=O)[C@H](CCC(N)=O)NC(=O)[C@H](CC(N)=O)NC(=O)[C@@H](NC(=O)[C@H](Cc3ccccc3)NC(=O)CCCCCNC(=O)CCCCC(=O)N(CC(=O)N(CCO[C@H]3O[C@H](CO)[C@@H](O)[C@H](O)[C@@H]3O)CCO[C@H]3O[C@H](CO)[C@@H](O)[C@H](O)[C@@H]3O)CC(=O)N(CCO[C@H]3O[C@H](CO)[C@@H](O)[C@H](O)[C@@H]3O)CCO[C@H]3O[C@H](CO)[C@@H](O)[C@H](O)[C@@H]3O)C(C)C)C(=O)NCC(=O)N[C@@H](CO)C(=O)N[C@@H](Cc3c[nH]cn3)C(=O)N[C@@H](CC(C)C)C(=O)N[C@@H](C(C)C)C(=O)N[C@@H](CCC(=O)O)C(=O)N[C@@H](C)C(=O)N[C@@H](CC(C)C)C(=O)N[C@@H](Cc3ccc(O)cc3)C(=O)N[C@@H](CC(C)C)C(=O)N[C@@H](C(C)C)C(=O)N[C@H](C(=O)NCC(=O)N[C@@H](CCC(=O)O)C(=O)N[C@@H](CCCNC(=N)N)C(=O)NCC(=O)N[C@@H](Cc3ccccc3)C(=O)N[C@@H](Cc3ccccc3)C(=O)N[C@@H](Cc3ccc(O)cc3)C(=O)N[C@H](C(=O)N3CCC[C@H]3C(=O)N[C@@H](CCCCNC(=O)CCCCCNC(=O)CCCCC(=O)N(CC(=O)N(CCO[C@H]3O[C@H](CO)[C@@H](O)[C@H](O)[C@@H]3O)CCO[C@H]3O[C@H](CO)[C@@H](O)[C@H](O)[C@@H]3O)CC(=O)N(CCO[C@H]3O[C@H](CO)[C@@H](O)[C@H](O)[C@@H]3O)CCO[C@H]3O[C@H](CO)[C@@H](O)[C@H](O)[C@@H]3O)C(=O)N[C@H](C(=O)O)[C@@H](C)O)[C@@H](C)O)CSSC[C@@H](C(=O)N[C@@H](CC(N)=O)C(=O)O)NC(=O)[C@H](Cc3ccc(O)cc3)NC(=O)[C@H](CC(N)=O)NC(=O)[C@H](CCC(=O)O)NC(=O)[C@H](CC(C)C)NC(=O)[C@H](CCC(N)=O)NC(=O)[C@H](Cc3ccc(O)cc3)NC(=O)[C@H](CC(C)C)NC(=O)[C@H](CO)NC2=O)NC1=O)C(C)C` [IOC-32] the IC50 [1] was 2.58 nM.
In the case of `CC[C@H](C)[C@H](NC(=O)CN)C(=O)N[C@H](C(=O)N[C@@H](CCC(=O)O)C(=O)N[C@@H](CCC(N)=O)C(=O)N[C@H]1CSSC[C@@H]2NC(=O)[C@H]([C@@H](C)CC)NC(=O)[C@H](CO)NC(=O)[C@H]([C@@H](C)O)NC(=O)[C@H](CSSC[C@H](NC(=O)[C@H](CC(C)C)NC(=O)[C@H](Cc3c[nH]cn3)NC(=O)[C@H](CCC(N)=O)NC(=O)[C@H](CC(N)=O)NC(=O)[C@@H](NC(=O)[C@H](Cc3ccccc3)NC(=O)CCCCC(=O)N(CC(=O)N(CCO[C@H]3O[C@H](CO)[C@@H](O)[C@H](O)[C@@H]3O)CCO[C@H]3O[C@H](CO)[C@@H](O)[C@H](O)[C@@H]3O)CC(=O)N(CCO[C@H]3O[C@H](CO)[C@@H](O)[C@H](O)[C@@H]3O)CCO[C@H]3O[C@H](CO)[C@@H](O)[C@H](O)[C@@H]3O)C(C)C)C(=O)NCC(=O)N[C@@H](CO)C(=O)N[C@@H](Cc3c[nH]cn3)C(=O)N[C@@H](CC(C)C)C(=O)N[C@@H](C(C)C)C(=O)N[C@@H](CCC(=O)O)C(=O)N[C@@H](C)C(=O)N[C@@H](CC(C)C)C(=O)N[C@@H](Cc3ccc(O)cc3)C(=O)N[C@@H](CC(C)C)C(=O)N[C@@H](C(C)C)C(=O)N[C@H](C(=O)NCC(=O)N[C@@H](CCC(=O)O)C(=O)N[C@@H](CCCNC(=N)N)C(=O)NCC(=O)N[C@@H](Cc3ccccc3)C(=O)N[C@@H](Cc3ccccc3)C(=O)N[C@@H](Cc3ccc(O)cc3)C(=O)N[C@H](C(=O)N3CCC[C@H]3C(=O)N[C@@H](CCCCNC(=O)CCCCC(=O)N(CC(=O)N(CCO[C@H]3O[C@H](CO)[C@@H](O)[C@H](O)[C@@H]3O)CCO[C@H]3O[C@H](CO)[C@@H](O)[C@H](O)[C@@H]3O)CC(=O)N(CCO[C@H]3O[C@H](CO)[C@@H](O)[C@H](O)[C@@H]3O)CCO[C@H]3O[C@H](CO)[C@@H](O)[C@H](O)[C@@H]3O)C(=O)N[C@H](C(=O)O)[C@@H](C)O)[C@@H](C)O)CSSC[C@@H](C(=O)N[C@@H](CC(N)=O)C(=O)O)NC(=O)[C@H](Cc3ccc(O)cc3)NC(=O)[C@H](CC(N)=O)NC(=O)[C@H](CCC(=O)O)NC(=O)[C@H](CC(C)C)NC(=O)[C@H](CCC(N)=O)NC(=O)[C@H](Cc3ccc(O)cc3)NC(=O)[C@H](CC(C)C)NC(=O)[C@H](CO)NC2=O)NC1=O)C(C)C` [IOC-31], the IC50 [2] is reported as 0.9 nM.
